Reference: paper PMC8037182, “Solvothermal Synthesis of Multiple Dihydropyrimidinones at a Time as Inhibitors of Eg5” (Molecules, 2021)
pIC50: −log10 of the molar value.

Test system: L929 cell line
Test: Cytotoxicity MTS assay, L929 cell line
Assay type: cell-based
Conditions: for OD490 values, Mean / OD490 values, Well 1 / OD490 values, Well 2 / OD490 values, Well 3: L929 cell line; for pIC50: MTS assay, 24 h exposure, ordinary fibroblast, not cancer cells
Procedure: The positive compounds (IC50 < 100 μM) obtained from the primary Eg5 motor protein ATPase assay were tested for antiproliferative activity in vitro against Caco-2 cell line, Hela cell line, L929 cell line and T24 cell line by performing MTS assay. Cells were introduced into 96-well plates at a density of 1000 cells per well. After 24 h incubation, the cells were exposed with compounds at final concentrations ranging from 0.5 to 100 µM for 24 h. DMSO was used at a final concentration of 0.025% as blank control, monastrol was used as the positive control. Then 20 µL (CellTiter 96® AQueous One Solution Promega, Madison, WI, USA) reagent was added in each well. After 2 h at 37 °C in a 80% humidified, 5% CO2 atmosphere, the absorbance at 490 nm was recorded using a microplate reader (BIO-RAD iMark^TM). The results were obtained in three independent duplicate experiments. The primary data were shown in Supplementary Materials Tables S4–S7. The IC50 values for these compounds were calculated from a non-linear regression graph plotted between the percentage of cell viability and concentration with SPSS17.0 software.

SMILES: CCOC(=O)c1c(C2NC(=O)NC(C)=C2C(=O)Nc2ccccc2C)[nH]c(C(=O)OC)c1C (stereo not drawn) [D2]
- OD490 values, Mean (0.5μM, first assay): 1.3610
- OD490 values, Well 1 (0.5μM, first assay): 1.3640
- OD490 values, Well 2 (0.5μM, first assay): 1.3358
- OD490 values, Well 3 (0.5μM, first assay): 1.3832
- OD490 values, Mean (1μM, first assay): 1.4199
- OD490 values, Well 1 (1μM, first assay): 1.4170
- OD490 values, Well 2 (1μM, first assay): 1.4018
- OD490 values, Well 3 (1μM, first assay): 1.4410
- OD490 values, Mean (10μM, first assay): 1.4901
- OD490 values, Well 1 (10μM, first assay): 1.4578
- OD490 values, Well 2 (10μM, first assay): 1.4940
- OD490 values, Well 3 (10μM, first assay): 1.5185
- OD490 values, Mean (25μM, first assay): 1.5070
- OD490 values, Well 1 (25μM, first assay): 1.5039
- OD490 values, Well 2 (25μM, first assay): 1.5321
- OD490 values, Well 3 (25μM, first assay): 1.4850
- OD490 values, Mean (50μM, first assay): 1.4864
- OD490 values, Well 1 (50μM, first assay): 1.5650
- OD490 values, Well 2 (50μM, first assay): 1.4275
- OD490 values, Well 3 (50μM, first assay): 1.4667
- OD490 values, Mean (100μM, first assay): 1.2316
- OD490 values, Well 1 (100μM, first assay): 1.2364
- OD490 values, Well 2 (100μM, first assay): 1.1967
- OD490 values, Well 3 (100μM, first assay): 1.2618
- pIC50: < 3.82

SMILES: COC(=O)c1[nH]c(C2NC(=S)NC(C)=C2C(=O)c2ccccc2)c(C(=O)OC)c1C (stereo not drawn) [D14]
- OD490 values, Mean (1μM, first assay): 1.2798
- OD490 values, Well 1 (1μM, first assay): 1.2932
- OD490 values, Well 2 (1μM, first assay): 1.2928
- OD490 values, Well 3 (1μM, first assay): 1.2533
- OD490 values, Mean (1μM, second assay): 1.4907
- OD490 values, Well 1 (1μM, second assay): 1.4325
- OD490 values, Well 2 (1μM, second assay): 1.3987
- OD490 values, Well 3 (1μM, second assay): 1.6410
- OD490 values, Mean (1μM, third assay): 1.6023
- OD490 values, Well 1 (1μM, third assay): 1.5874
- OD490 values, Well 2 (1μM, third assay): 1.6622
- OD490 values, Well 3 (1μM, third assay): 1.5574
- OD490 values, Mean (1.5μM, first assay): 1.2729
- OD490 values, Well 1 (1.5μM, first assay): 1.2563
- OD490 values, Well 2 (1.5μM, first assay): 1.3177
- OD490 values, Well 3 (1.5μM, first assay): 1.2448
- OD490 values, Mean (1.5μM, second assay): 1.4657
- OD490 values, Well 1 (1.5μM, second assay): 1.4258
- OD490 values, Well 2 (1.5μM, second assay): 1.4302
- OD490 values, Well 3 (1.5μM, second assay): 1.5412
- OD490 values, Mean (1.5μM, third assay): 1.5678
- OD490 values, Well 1 (1.5μM, third assay): 1.5254
- OD490 values, Well 2 (1.5μM, third assay): 1.5988
- OD490 values, Well 3 (1.5μM, third assay): 1.5793
- OD490 values, Mean (10μM, first assay): 1.2551
- OD490 values, Well 1 (10μM, first assay): 1.2039
- OD490 values, Well 2 (10μM, first assay): 1.3650
- OD490 values, Well 3 (10μM, first assay): 1.1963
- OD490 values, Mean (10μM, second assay): 1.4237
- OD490 values, Well 1 (10μM, second assay): 1.3365
- OD490 values, Well 2 (10μM, second assay): 1.5325
- OD490 values, Well 3 (10μM, second assay): 1.4022
- OD490 values, Mean (10μM, third assay): 1.5660
- OD490 values, Well 1 (10μM, third assay): 1.5254
- OD490 values, Well 2 (10μM, third assay): 1.6200
- OD490 values, Well 3 (10μM, third assay): 1.5525
- OD490 values, Mean (25μM, first assay): 1.1670
- OD490 values, Well 1 (25μM, first assay): 1.1764
- OD490 values, Well 2 (25μM, first assay): 1.2795
- OD490 values, Well 3 (25μM, first assay): 1.0451
- OD490 values, Mean (25μM, second assay): 1.2993
- OD490 values, Well 1 (25μM, second assay): 1.3065
- OD490 values, Well 2 (25μM, second assay): 1.2547
- OD490 values, Well 3 (25μM, second assay): 1.3366
- OD490 values, Mean (25μM, third assay): 1.5294
- OD490 values, Well 1 (25μM, third assay): 1.4424
- OD490 values, Well 2 (25μM, third assay): 1.5235
- OD490 values, Well 3 (25μM, third assay): 1.6222
- OD490 values, Mean (50μM, first assay): 1.0826
- OD490 values, Well 1 (50μM, first assay): 0.8914
- OD490 values, Well 2 (50μM, first assay): 1.1616
- OD490 values, Well 3 (50μM, first assay): 1.1948
- OD490 values, Mean (50μM, second assay): 1.1536
- OD490 values, Well 1 (50μM, second assay): 1.1241
- OD490 values, Well 2 (50μM, second assay): 1.2101
- OD490 values, Well 3 (50μM, second assay): 1.1265
- OD490 values, Mean (50μM, third assay): 1.3855
- OD490 values, Well 1 (50μM, third assay): 1.3665
- OD490 values, Well 2 (50μM, third assay): 1.3874
- OD490 values, Well 3 (50μM, third assay): 1.4025
- OD490 values, Mean (100μM, first assay): 1.0433
- OD490 values, Well 1 (100μM, first assay): 0.7506
- OD490 values, Well 2 (100μM, first assay): 1.0796
- OD490 values, Well 3 (100μM, first assay): 1.2998
- OD490 values, Mean (100μM, second assay): 1.1143
- OD490 values, Well 1 (100μM, second assay): 1.1121
- OD490 values, Well 2 (100μM, second assay): 1.1285
- OD490 values, Well 3 (100μM, second assay): 1.1022
- OD490 values, Mean (100μM, third assay): 1.3039
- OD490 values, Well 1 (100μM, third assay): 1.3251
- OD490 values, Well 2 (100μM, third assay): 1.3325
- OD490 values, Well 3 (100μM, third assay): 1.2542
- pIC50: 3.86

SMILES: CCOC(=O)c1[nH]c(C2NC(=O)NC(C)=C2C(=O)Nc2ccc(Cl)cc2)c(C(=O)OCC)c1C (stereo not drawn) [D7]
- OD490 values, Mean (0.5μM, first assay): 1.2964
- OD490 values, Well 1 (0.5μM, first assay): 1.2432
- OD490 values, Well 2 (0.5μM, first assay): 1.3324
- OD490 values, Well 3 (0.5μM, first assay): 1.3135
- OD490 values, Mean (0.5μM, second assay): 1.6723
- OD490 values, Well 1 (0.5μM, second assay): 1.6985
- OD490 values, Well 2 (0.5μM, second assay): 1.7484
- OD490 values, Well 3 (0.5μM, second assay): 1.5699
- OD490 values, Mean (0.5μM, third assay): 1.6351
- OD490 values, Well 1 (0.5μM, third assay): 1.6545
- OD490 values, Well 2 (0.5μM, third assay): 1.5521
- OD490 values, Well 3 (0.5μM, third assay): 1.6987
- OD490 values, Mean (1μM, first assay): 1.2921
- OD490 values, Well 1 (1μM, first assay): 1.3838
- OD490 values, Well 2 (1μM, first assay): 1.2582
- OD490 values, Well 3 (1μM, first assay): 1.2343
- OD490 values, Mean (1μM, second assay): 1.6805
- OD490 values, Well 1 (1μM, second assay): 1.6879
- OD490 values, Well 2 (1μM, second assay): 1.6582
- OD490 values, Well 3 (1μM, second assay): 1.6955
- OD490 values, Mean (1μM, third assay): 1.6677
- OD490 values, Well 1 (1μM, third assay): 1.6254
- OD490 values, Well 2 (1μM, third assay): 1.6358
- OD490 values, Well 3 (1μM, third assay): 1.7420
- OD490 values, Mean (10μM, first assay): 1.2890
- OD490 values, Well 1 (10μM, first assay): 1.2982
- OD490 values, Well 2 (10μM, first assay): 1.3257
- OD490 values, Well 3 (10μM, first assay): 1.2432
- OD490 values, Mean (10μM, second assay): 1.6485
- OD490 values, Well 1 (10μM, second assay): 1.6354
- OD490 values, Well 2 (10μM, second assay): 1.6254
- OD490 values, Well 3 (10μM, second assay): 1.6847
- OD490 values, Mean (10μM, third assay): 1.7036
- OD490 values, Well 1 (10μM, third assay): 1.5935
- OD490 values, Well 2 (10μM, third assay): 1.8852
- OD490 values, Well 3 (10μM, third assay): 1.6320
- OD490 values, Mean (25μM, first assay): 1.2098
- OD490 values, Well 1 (25μM, first assay): 1.2509
- OD490 values, Well 2 (25μM, first assay): 1.2839
- OD490 values, Well 3 (25μM, first assay): 1.0945
- OD490 values, Mean (25μM, second assay): 1.5137
- OD490 values, Well 1 (25μM, second assay): 1.4655
- OD490 values, Well 2 (25μM, second assay): 1.5869
- OD490 values, Well 3 (25μM, second assay): 1.4888
- OD490 values, Mean (25μM, third assay): 1.4100
- OD490 values, Well 1 (25μM, third assay): 1.4658
- OD490 values, Well 2 (25μM, third assay): 1.4441
- OD490 values, Well 3 (25μM, third assay): 1.3201
- OD490 values, Mean (50μM, first assay): 1.1393
- OD490 values, Well 1 (50μM, first assay): 1.0255
- OD490 values, Well 2 (50μM, first assay): 1.3097
- OD490 values, Well 3 (50μM, first assay): 1.0826
- OD490 values, Mean (50μM, second assay): 1.3764
- OD490 values, Well 1 (50μM, second assay): 1.3685
- OD490 values, Well 2 (50μM, second assay): 1.3652
- OD490 values, Well 3 (50μM, second assay): 1.3955
- OD490 values, Mean (50μM, third assay): 1.3402
- OD490 values, Well 1 (50μM, third assay): 1.3584
- OD490 values, Well 2 (50μM, third assay): 1.2635
- OD490 values, Well 3 (50μM, third assay): 1.3987
- OD490 values, Mean (100μM, first assay): 0.7147
- OD490 values, Well 1 (100μM, first assay): 0.7427
- OD490 values, Well 2 (100μM, first assay): 0.7798
- OD490 values, Well 3 (100μM, first assay): 0.6215
- OD490 values, Mean (100μM, second assay): 0.8285
- OD490 values, Well 1 (100μM, second assay): 0.8306
- OD490 values, Well 2 (100μM, second assay): 0.7562
- OD490 values, Well 3 (100μM, second assay): 0.8988
- OD490 values, Mean (100μM, third assay): 0.8420
- OD490 values, Well 1 (100μM, third assay): 0.8635
- OD490 values, Well 2 (100μM, third assay): 0.8992
- OD490 values, Well 3 (100μM, third assay): 0.7632
- pIC50: 4.02
